Series [1] in a line: Stability of DITS in a generic shampoo matrix after storage at 40° C. for 8 weeks, by HPLC. The format is physicochemical. The method, then:
All analytical data were obtained by high performance liquid chromatography (“HPLC”) analysis for content for diiodomethyl-p-tolylsulfone (DITS) and monoiodomethyl-p-tolylsulfone (MITS). Analysis was done on an Agilent HP system using a Phenomenex Bondclone 10 micron C18 reverse phase column (300×3.9 mm, 10 microns) at a flow rate of 2 mL/min, isocratic 55% acetonitrile in water for 17 min. Under these conditions DITS elutes at 3.9-4.3 min and MITS elutes at 2.9-3.3 min, depending on the shampoo matrix. […]
To a 250 mL glass jar were added 24.81 g water and 0.2526 g SL 400. The mixture was stirred vigorously for 1.5 h. Then, 1.0302 g milled AMICAL™ diiodomethyl-para-tolylsulfone was added, and the mixture was stirred for an additional 1.5 hours. After that, the premix was heated to 68° C. in a hot water bath, and a pre-blended mixture of Standapol* EA-3 (32.98 g), Standapol* A (11.16 g), and LAA (16.70 g) was added with agitation. 12.9 g of DI water was added next, and stirring was continued in the hot water bath. After 10 min, […] to adjust the pH. After an additional 10 min, the temperature of the mixture was recorded (68° C.) and the heating was stopped. The mixture was stirred on high speed for another hour, until it cooled. At that point, 0.31 g Glydant* and 0.30 g fragrance were added, and the sample was adjusted with water to 100 g formulation. Stirring continued for another hour. […]
This procedure was followed for all the polymers listed in Table 1, at the stated polymer concentration. In all cases, AMICAL™ 48 milled to a D50=2 microns was used (diiodomethyl-p-tolylsulfone content 92.5%). Detailed here is the example involving SOFTCAT™ SL 400 at 0.25% concentration.
To a 250 mL glass jar were added 24.82 g water and 0.2644 g SOFTCAT™ SL 400. The mixture was stirred vigorously for 1.5 h. Separately, in a 250 mL beaker were combined Standapol* EA-3 (33.57 g), Standapol* A (11.08 g), and LAA (16.13 g). The mixture was stirred vigorously using an overhead stirrer, and after 10 min, 1.0120 g milled DITS (AMICAL™ 48) was added, followed by 5.0 g water. The DITS-surfactant blend was stirred for 1.25 hours. After that, the DITS—surfactant blend was added with agitation to the polymer solution which had been heated to 58° C. in a hot water bath. 8.12 g of deionized water was added next, and stirring was continued in the hot water bath. After 10 min, 1 mL of a 10% aqueous citric acid solution was added to adjust the pH. After an additional 15 min, the temperature of the mixture was recorded (58° C.) and the heating was stopped. The mixture was stirred on high speed for another hour, until it cooled. At that point, 0.44 g Glydant* and 0.3 g fragrance were added, and the sample was adjusted with water to 100 g formulation. […]

Series [2] has as its system fungi. The following applies: wide variety of fungi; cited from earlier work.
For series [3] the following is noted: cited from earlier work.

For `Cc1ccc(S(=O)(=O)C(I)I)cc1` [DITS, diiodomethyl-para-tolylsulfone], the “DITS content after storage (HPLC)” value in series [1] (Example 4, no polymer control, 8 week at 40° C.) was found to be 0.44%. The “DITS content at time zero (HPLC)” value in series [1] (Example 4, no polymer control, time zero) came to 1.02%. Moreover, the decomposition in series [1] (control samples formulated without polymer, shampoo matrix, 8 weeks at 40° C.) is given as roughly 60%. The “% DITS left when added to surfactant blend” value in series [1] (generic shampoo matrix, 40° C. for 8 weeks, no polymer (control, Example 4)) is given as 43.2%. In addition, the minimum inhibitory concentration result in series [2] is on record as “less than 10 ppm”. Besides, in series [3], the water solubility result is reported as “less than 10 ppm”.

The record behind these values is patent publication US20060135472A1, “Use of water-soluble polymers to improve stability of diiodomethyl-para-tolylsulfone in complex matrices” (priority 2004, published 2006).
